Experimental data published in patent US20240262814A1, “MODULATORS OF TREX1” (Constellation Pharmaceuticals, Inc., priority 2021, published 2024).

Experiments:
[1] = target: T1, human TREX1 (Homo sapiens, UniProt Q9NSU2); experiment: hTREX1 Biochemical Assay (fluorescence, dsDNA substrate degradation); conditions: full length human TREX1, 4 h pre-incubation, 18 h reaction at 25° C.
T1 construct: N-terminally His-Tev tagged full length human TREX1; made in house; host or cells: E. coli
T1 sequence (Q9NSU2 1-314): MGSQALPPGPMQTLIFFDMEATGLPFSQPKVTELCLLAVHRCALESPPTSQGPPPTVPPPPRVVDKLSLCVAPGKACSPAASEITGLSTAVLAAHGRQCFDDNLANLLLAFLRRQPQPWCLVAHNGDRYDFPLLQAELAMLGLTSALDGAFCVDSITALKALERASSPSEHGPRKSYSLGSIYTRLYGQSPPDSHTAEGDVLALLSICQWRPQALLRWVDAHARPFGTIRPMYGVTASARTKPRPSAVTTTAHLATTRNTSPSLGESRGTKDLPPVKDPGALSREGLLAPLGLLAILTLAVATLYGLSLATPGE
Protocol: (§1) Degradation of the dsDNA liberates free fluorophore to produce a fluorescent signal. Specifically, 7.5 μL of N-terminally His-Tev tagged full length human TREX1 (expressed in E. coli and purified in house) in reaction buffer (50 mM Tris, 150 mM NaCl, 2 mM DTT, 0.1 mg/mL BSA, 0.01% (w/v) Tween-20, 5 mM MgCl2, pH 7.4) was added to a 384-well Black ProxiPlate Plus (PerkinElmer) which already contained compound (150 nL) at varying concentrations as a 10 point dose-response in DMSO. The plate was incubated at 25° C. for 4 hours. Reactions were initiated by adding 7.5 μL of dsDNA substrate (Strand A: 5′ TEX615/GCT AGG CAG 3′; Strand B: 5′ CTG CCT AGC/IAbRQSp (Integrated DNA Technologies)) in reaction buffer. Final concentrations were 4 pM TREX1, 60 nM dsDNA substrate in reaction buffer with 1.0% DMSO (v/v). After 18 hours at 25° C., reactions were quenched by the addition of 2 p L of 500 mM EDTA. Final concentrations in the quenched reaction were 3.5 pM TREX1, 53 nM DNA and 59 mM EDTA in a volume of 17 μL. After a 5-minute incubation at room temperature, plates were read in an EnVision plate reader (PerkinElmer) measuring fluorescence at 615 nm following excitation w/ 570 nm light. IC50 values were calculated by comparing the measured fluorescence at 615 nm relative to control wells pre-quenched w/ EDTA (100% inhibition) and no inhibitor (0% inhibition) controls as using non-linear least square four parameter fits and either Genedata or GraphPad Prism (GraphPad Software, Inc.).

[2] = target: T2, mouse TREX1 (Mus musculus, UniProt Q91XB0); experiment: mTREX1 Biochemical Assay (fluorescence, dsDNA substrate degradation); conditions: full length mouse TREX1, 4 h pre-incubation, 18 h reaction at 25° C.
T2 construct: N-terminally His-Tev tagged full length mouse TREX1; made in house; host or cells: E. coli
T2 sequence (Q91XB0 1-314): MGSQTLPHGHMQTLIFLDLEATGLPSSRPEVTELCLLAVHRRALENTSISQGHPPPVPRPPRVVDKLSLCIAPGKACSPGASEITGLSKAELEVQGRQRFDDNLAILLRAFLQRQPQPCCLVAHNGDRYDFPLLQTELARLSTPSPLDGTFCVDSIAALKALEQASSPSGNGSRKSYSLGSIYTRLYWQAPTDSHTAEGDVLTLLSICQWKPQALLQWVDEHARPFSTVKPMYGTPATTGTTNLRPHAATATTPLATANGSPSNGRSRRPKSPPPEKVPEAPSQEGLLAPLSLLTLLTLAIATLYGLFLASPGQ
Protocol: as §1, with “Specifically, 7.5 p L of N-terminally” for “Specifically, 7.5 μL of N-terminally”, “full length mouse TREX1 (expressed” for “full length human TREX1 (expressed”, “concentrations were 6 pM TREX1,” for “concentrations were 4 pM TREX1,”, “reaction were 5.3 pM TREX1,” for “reaction were 3.5 pM TREX1,”, “of 17 p L. After a” for “of 17 μL. After a”

[3] = target: T3, human TREX2 (Homo sapiens, UniProt Q9BQ50); experiment: hTREX2 Biochemical Assay (selectivity hTREX1 vs hTREX2); conditions: biochemical selectivity for hTREX1 vs hTREX2
T3 construct: human TREX2 (residues M44-A279, expressed in E. coli); made in house; host or cells: E. coli
T3 sequence (Q9BQ50 44-279 isoform Q9BQ50-1): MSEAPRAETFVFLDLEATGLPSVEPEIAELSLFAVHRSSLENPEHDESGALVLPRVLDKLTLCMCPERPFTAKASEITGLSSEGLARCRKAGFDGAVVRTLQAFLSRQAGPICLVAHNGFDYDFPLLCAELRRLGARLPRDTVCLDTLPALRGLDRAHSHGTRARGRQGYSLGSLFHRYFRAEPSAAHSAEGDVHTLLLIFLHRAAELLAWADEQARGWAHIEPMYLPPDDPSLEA
Protocol: Degradation of the dsDNA liberates free fluorophore to produce a fluorescent signal. Specifically, 7.5 p L of N-terminally His-Tev tagged human TREX2 (residues M44-A279, expressed in E. coli and purified in house) in reaction buffer (50 mM Tris, 150 mM NaCl, 2 mM DTT, 0.1 mg/mL BSA, 0.01% (w/v) Tween-20, 5 mM MgCl2, pH 7.4) was added to a 384-well Black ProxiPlate Plus (PerkinElmer) which already contained compound (150 nL) at varying concentrations as a 10 point dose-response in DMSO. The plate was incubated at 25° C. for 4 hours. Reactions were initiated by adding 7.5 μL of dsDNA substrate (Strand A: 5′ TEX615/GCT AGG CAG 3′; Strand B: 5′ CTG CCT AGC/IAbRQSp (IDT)) in reaction buffer. Final concentrations were 50 pM TREX2, 60 nM dsDNA substrate in reaction buffer with 1.0% DMSO (v/v). After 18 hours at 25° C., reactions were quenched by the addition of 2 μL of 500 mM EDTA. Final concentrations in the quenched reaction mixture were 44 pM TREX2, 53 nM DNA and 59 mM EDTA in a volume of 17 μL. After a 5-minute incubation at room temperature, plates were read in an EnVision plate reader (PerkinElmer) measuring fluorescence at 615 nm following excitation w/ 570 nm light. IC50 values were calculated by comparing the measured fluorescence at 615 nm relative to control wells pre-quenched w/ stop buffer (100% inhibition) and no inhibitor (0% inhibition) controls as using non-linear least square four parameter fits and either Genedata or GraphPad Prism (GraphPad Software, Inc.).

CC(c1nc(C(=O)Nc2cnoc2)c(O)c(=O)n1C)C(c1ccccc1Cl)c1ccccc1C#N (single isomer, unassigned) [Example 10 Isomer 2]
IC50 [1]: 10 to 100 nM
IC50 [2]: > 10 nM
hTREX1 vs hTREX2 selectivity [3]: B (B = 25 to 50 fold selective for hTREX1)

CC(c1nc(C(=O)Nc2cnoc2)c(O)c(=O)n1C)C(c1ccccc1Cl)c1ccccc1C#N (single isomer, unassigned) [Example 10 Isomer 3]
IC50 [1]: < 1 nM
IC50 [2]: 1 to 10 nM
hTREX1 vs hTREX2 selectivity [3]: C (C = >50 fold selective for hTREX1)

CC(c1nc(C(=O)Nc2cnoc2)c(O)c(=O)n1C)C(c1ccccc1Cl)c1ccccc1C#N (single isomer, unassigned) [Example 10 Isomer 4]
IC50 [1]: < 1 nM
IC50 [2]: 1 to 10 nM
hTREX1 vs hTREX2 selectivity [3]: C (C = >50 fold selective for hTREX1)

CC(c1nc(C(=O)Nc2cnoc2)c(O)c(=O)n1C)C(c1cc(F)cc(F)c1)c1ccccc1C#N (single isomer, unassigned) [Example 11 Isomer 2]
IC50 [1]: 1 to 10 nM
IC50 [2]: > 10 nM
hTREX1 vs hTREX2 selectivity [3]: C (C = >50 fold selective for hTREX1)

CC(c1nc(C(=O)Nc2cnoc2)c(O)c(=O)n1C)C(c1cc(F)cc(F)c1)c1ccccc1C#N (single isomer, unassigned) [Example 11 Isomer 4]
IC50 [1]: 1 to 10 nM
IC50 [2]: 1 to 10 nM
hTREX1 vs hTREX2 selectivity [3]: A (A = <25 fold selective for hTREX1)

CC(c1nc(C(=O)Nc2cnoc2)c(O)c(=O)n1C)C(c1ccc(F)c(F)c1)c1ccccc1C#N (single isomer, unassigned) [Example 12 Isomer 1]
IC50 [1]: 1 to 10 nM
IC50 [2]: > 10 nM
hTREX1 vs hTREX2 selectivity [3]: C (C = >50 fold selective for hTREX1)

CC(c1nc(C(=O)Nc2cnoc2)c(O)c(=O)n1C)C(c1ccc(F)c(F)c1)c1ccccc1C#N (single isomer, unassigned) [Example 12 Isomer 3]
IC50 [1]: < 1 nM
IC50 [2]: < 1 nM
hTREX1 vs hTREX2 selectivity [3]: B (B = 25 to 50 fold selective for hTREX1)

CC(c1nc(C(=O)Nc2cnoc2)c(O)c(=O)n1C)C(c1ccc(F)c(F)c1)c1ccccc1C#N (single isomer, unassigned) [Example 12 Isomer 4]
IC50 [1]: 10 to 100 nM
IC50 [2]: > 10 nM
hTREX1 vs hTREX2 selectivity [3]: A (A = <25 fold selective for hTREX1)

CC(c1nc(C(=O)Nc2cnoc2)c(O)c(=O)n1C)C(c1ccc(F)cc1F)c1ccccc1C#N (single isomer, unassigned) [Example 13 Isomer 1]
IC50 [1]: < 1 nM
IC50 [2]: < 1 nM
hTREX1 vs hTREX2 selectivity [3]: C (C = >50 fold selective for hTREX1)

CC(c1nc(C(=O)Nc2cnoc2)c(O)c(=O)n1C)C(c1ccc(F)cc1F)c1ccccc1C#N (single isomer, unassigned) [Example 13 Isomer 2]
IC50 [1]: < 1 nM
IC50 [2]: 1 to 10 nM
hTREX1 vs hTREX2 selectivity [3]: C (C = >50 fold selective for hTREX1)

CC(c1nc(C(=O)Nc2cnoc2)c(O)c(=O)n1C)C(c1ccc(F)cc1F)c1ccccc1C#N (single isomer, unassigned) [Example 13 Isomer 3]
IC50 [1]: 10 to 100 nM
IC50 [2]: > 10 nM
hTREX1 vs hTREX2 selectivity [3]: B (B = 25 to 50 fold selective for hTREX1)

C[C@H](c1nc(C(=O)Nc2cnoc2)c(O)c(=O)n1C)[C@H](c1ccccc1)c1ccccc1C(F)(F)F (single isomer, unassigned) [Example 14 Isomer 1, 5-Hydroxy-N-(isoxazol-4-yl)-1-methyl-6-oxo-2-(1-phenyl-1-(2-(trifluoromethyl)phenyl)propan-2-yl)-1,6-dihydropyrimidine-4-carboxamide]
IC50 [1]: > 100 nM
IC50 [2]: > 10 nM
hTREX1 vs hTREX2 selectivity [3]: A (A = <25 fold selective for hTREX1)

C[C@H](c1nc(C(=O)Nc2cnoc2)c(O)c(=O)n1C)[C@H](c1ccccc1)c1ccccc1C(F)(F)F (single isomer, unassigned) [Example 14 Isomer 4, 5-Hydroxy-N-(isoxazol-4-yl)-1-methyl-6-oxo-2-(1-phenyl-1-(2-(trifluoromethyl)phenyl)propan-2-yl)-1,6-dihydropyrimidine-4-carboxamide]
IC50 [1]: 1 to 10 nM
IC50 [2]: > 10 nM
hTREX1 vs hTREX2 selectivity [3]: B (B = 25 to 50 fold selective for hTREX1)

C[C@H](c1nc(C(=O)Nc2cnoc2)c(O)c(=O)n1C)C(c1ccccc1Cl)c1ccccc1Cl (single isomer, unassigned) [Example 15 Isomer 2, 2-(1,1-bis(2-chlorophenyl)propan-2-yl)-5-hydroxy-N-(isooxazol-4-yl)-1-methyl-6-oxo-1,6-dihydropyrimidine-4-carboxamide]
IC50 [1]: > 100 nM
IC50 [2]: > 10 nM
hTREX1 vs hTREX2 selectivity [3]: A (A = <25 fold selective for hTREX1)
